Measurements published in ChEMBL document CHEMBL4190187, “Discovery of pyrazolopyrimidine derivatives as novel inhibitors of ataxia telangiectasia and rad3 related protein (ATR)” (Bioorg Med Chem Lett, 2017).

What was measured:
[1] = molecular target: Mitogen-activated protein kinase kinase kinase 20 (Homo sapiens) (UniProt Q9NYL2); assay: Inhibition of recombinant full-length human ZAK at 1 uM using myelin basic protein as substrate after 40 mins in presence of [gamma-33P]ATP by scintillation counting method
Mitogen-activated protein kinase kinase kinase 20 (Homo sapiens), sequence (Q9NYL2 2-800 limits assumed): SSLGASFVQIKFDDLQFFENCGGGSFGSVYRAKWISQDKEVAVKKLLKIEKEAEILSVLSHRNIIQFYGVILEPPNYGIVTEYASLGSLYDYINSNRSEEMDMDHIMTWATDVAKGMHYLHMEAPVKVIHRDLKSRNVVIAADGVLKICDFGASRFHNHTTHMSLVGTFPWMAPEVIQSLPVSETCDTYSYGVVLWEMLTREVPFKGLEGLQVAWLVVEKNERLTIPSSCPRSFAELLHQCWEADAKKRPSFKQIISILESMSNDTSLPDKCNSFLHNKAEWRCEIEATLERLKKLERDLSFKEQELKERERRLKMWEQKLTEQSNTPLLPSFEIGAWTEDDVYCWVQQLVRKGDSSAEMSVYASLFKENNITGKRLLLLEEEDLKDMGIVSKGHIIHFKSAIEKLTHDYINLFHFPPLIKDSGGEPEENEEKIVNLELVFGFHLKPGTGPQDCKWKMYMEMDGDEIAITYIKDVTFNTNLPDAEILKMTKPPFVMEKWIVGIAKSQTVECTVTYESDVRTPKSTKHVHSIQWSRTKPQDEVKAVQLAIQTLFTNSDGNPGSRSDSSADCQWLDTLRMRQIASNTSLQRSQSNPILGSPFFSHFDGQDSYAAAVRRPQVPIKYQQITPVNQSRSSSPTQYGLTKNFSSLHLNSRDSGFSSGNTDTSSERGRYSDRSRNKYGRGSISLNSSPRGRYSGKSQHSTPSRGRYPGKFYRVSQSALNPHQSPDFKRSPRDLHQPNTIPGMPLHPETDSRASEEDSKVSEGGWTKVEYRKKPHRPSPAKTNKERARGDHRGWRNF

[2] = molecular target: Serine/threonine-protein kinase pim-1 (Homo sapiens) (UniProt P11309); assay: Inhibition of recombinant full-length human PIM1 at 1 uM using KKRNRTLTV as substrate after 40 mins in presence of [gamma-33P]ATP by scintillation counting method
Serine/threonine-protein kinase pim-1 (Homo sapiens), sequence (P11309 whole entry, looked up, the tested form may be a part, canonical isoform): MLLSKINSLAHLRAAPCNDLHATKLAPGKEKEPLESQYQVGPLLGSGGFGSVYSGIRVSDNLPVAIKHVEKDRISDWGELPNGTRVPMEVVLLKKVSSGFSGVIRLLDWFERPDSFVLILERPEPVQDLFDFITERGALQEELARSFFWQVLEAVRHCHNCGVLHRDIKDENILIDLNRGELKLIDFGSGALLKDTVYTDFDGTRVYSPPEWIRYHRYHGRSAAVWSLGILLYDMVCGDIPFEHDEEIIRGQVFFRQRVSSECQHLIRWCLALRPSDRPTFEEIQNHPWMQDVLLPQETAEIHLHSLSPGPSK

[3] = molecular target: Phosphorylase b kinase gamma catalytic chain, liver/testis isoform (Homo sapiens) (UniProt P15735); assay: Inhibition of recombinant human PhKgamma2 (1 to 301 residues) at 1 uM using KKLNRTLSFAEPG as substrate after 40 mins in presence of [gamma-33P]ATP by scintillation counting method
Phosphorylase b kinase gamma catalytic chain, liver/testis isoform (Homo sapiens), sequence (P15735 whole entry, the tested form may be a part, canonical isoform): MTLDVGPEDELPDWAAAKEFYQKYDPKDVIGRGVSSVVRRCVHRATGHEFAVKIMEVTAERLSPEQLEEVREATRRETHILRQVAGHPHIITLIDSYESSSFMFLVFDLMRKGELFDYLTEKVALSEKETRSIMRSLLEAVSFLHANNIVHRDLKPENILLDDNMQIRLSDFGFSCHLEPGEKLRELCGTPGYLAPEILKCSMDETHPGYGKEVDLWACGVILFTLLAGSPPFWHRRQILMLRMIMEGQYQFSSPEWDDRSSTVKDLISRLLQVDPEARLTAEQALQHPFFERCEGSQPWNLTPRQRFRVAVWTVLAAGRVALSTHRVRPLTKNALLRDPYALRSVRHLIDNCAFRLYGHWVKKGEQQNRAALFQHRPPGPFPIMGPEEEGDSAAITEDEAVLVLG

[4] = molecular target: Protein-tyrosine kinase 6 (Homo sapiens) (UniProt Q13882); assay: Inhibition of recombinant full-length human BRK at 1 uM using poly(Glu,Tyr) 4:1 as substrate after 40 mins in presence of [gamma-33P]ATP by scintillation counting method
[5] = molecular target: Aurora kinase B (Homo sapiens) (UniProt Q96GD4); assay: Inhibition of recombinant full-length human Aurora-B at 1 uM using AKRRRLSSLRA as substrate after 40 mins in presence of [gamma-33P]ATP by scintillation counting method
Aurora kinase B (Homo sapiens), sequence (Q96GD4 whole entry): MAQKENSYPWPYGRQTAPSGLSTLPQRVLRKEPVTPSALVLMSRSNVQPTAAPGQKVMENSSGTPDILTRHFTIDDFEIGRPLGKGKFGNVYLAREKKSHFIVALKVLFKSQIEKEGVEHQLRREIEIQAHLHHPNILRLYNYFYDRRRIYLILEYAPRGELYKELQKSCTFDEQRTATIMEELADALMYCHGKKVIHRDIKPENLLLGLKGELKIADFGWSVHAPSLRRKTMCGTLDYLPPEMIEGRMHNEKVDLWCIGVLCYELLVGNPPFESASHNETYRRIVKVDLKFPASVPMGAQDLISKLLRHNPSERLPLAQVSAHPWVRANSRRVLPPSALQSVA

[6] = molecular target: Epidermal growth factor receptor (Homo sapiens) (UniProt P00533); assay: Inhibition of recombinant human EGFR (696 to end residues) at 1 uM using poly(Glu,Tyr) 4:1 as substrate after 40 mins in presence of [gamma-33P]ATP by scintillation counting method
[7] = test system: Platelet-derived growth factor receptor alpha (Homo sapiens), P16234 [D842V]; assay: Inhibition of recombinant human PDGFRalpha D842V mutant (550 to end residues) at 1 uM using GGMEDIYFEFMGGKKK as substrate after 40 mins in presence of [gamma-33P]ATP by scintillation counting method
[8] = molecular target: MAP/microtubule affinity-regulating kinase 4 (Homo sapiens) (UniProt Q96L34); assay: Inhibition of recombinant full-length human MARK4 at 1 uM using KKKVSRSGLYRSPSMPENLNRPR as substrate after 40 mins in presence of [gamma-33P]ATP by scintillation counting method
[9] = molecular target: Serine-protein kinase ATM (Homo sapiens) (UniProt Q13315); assay: Inhibition of recombinant full-length human ATM at 1 uM using GST-cMyc-p53 as substrate after 40 mins in presence of [gamma-33P]ATP by scintillation counting method
Serine-protein kinase ATM (Homo sapiens), sequence (Q13315 whole entry, the tested form may be a part): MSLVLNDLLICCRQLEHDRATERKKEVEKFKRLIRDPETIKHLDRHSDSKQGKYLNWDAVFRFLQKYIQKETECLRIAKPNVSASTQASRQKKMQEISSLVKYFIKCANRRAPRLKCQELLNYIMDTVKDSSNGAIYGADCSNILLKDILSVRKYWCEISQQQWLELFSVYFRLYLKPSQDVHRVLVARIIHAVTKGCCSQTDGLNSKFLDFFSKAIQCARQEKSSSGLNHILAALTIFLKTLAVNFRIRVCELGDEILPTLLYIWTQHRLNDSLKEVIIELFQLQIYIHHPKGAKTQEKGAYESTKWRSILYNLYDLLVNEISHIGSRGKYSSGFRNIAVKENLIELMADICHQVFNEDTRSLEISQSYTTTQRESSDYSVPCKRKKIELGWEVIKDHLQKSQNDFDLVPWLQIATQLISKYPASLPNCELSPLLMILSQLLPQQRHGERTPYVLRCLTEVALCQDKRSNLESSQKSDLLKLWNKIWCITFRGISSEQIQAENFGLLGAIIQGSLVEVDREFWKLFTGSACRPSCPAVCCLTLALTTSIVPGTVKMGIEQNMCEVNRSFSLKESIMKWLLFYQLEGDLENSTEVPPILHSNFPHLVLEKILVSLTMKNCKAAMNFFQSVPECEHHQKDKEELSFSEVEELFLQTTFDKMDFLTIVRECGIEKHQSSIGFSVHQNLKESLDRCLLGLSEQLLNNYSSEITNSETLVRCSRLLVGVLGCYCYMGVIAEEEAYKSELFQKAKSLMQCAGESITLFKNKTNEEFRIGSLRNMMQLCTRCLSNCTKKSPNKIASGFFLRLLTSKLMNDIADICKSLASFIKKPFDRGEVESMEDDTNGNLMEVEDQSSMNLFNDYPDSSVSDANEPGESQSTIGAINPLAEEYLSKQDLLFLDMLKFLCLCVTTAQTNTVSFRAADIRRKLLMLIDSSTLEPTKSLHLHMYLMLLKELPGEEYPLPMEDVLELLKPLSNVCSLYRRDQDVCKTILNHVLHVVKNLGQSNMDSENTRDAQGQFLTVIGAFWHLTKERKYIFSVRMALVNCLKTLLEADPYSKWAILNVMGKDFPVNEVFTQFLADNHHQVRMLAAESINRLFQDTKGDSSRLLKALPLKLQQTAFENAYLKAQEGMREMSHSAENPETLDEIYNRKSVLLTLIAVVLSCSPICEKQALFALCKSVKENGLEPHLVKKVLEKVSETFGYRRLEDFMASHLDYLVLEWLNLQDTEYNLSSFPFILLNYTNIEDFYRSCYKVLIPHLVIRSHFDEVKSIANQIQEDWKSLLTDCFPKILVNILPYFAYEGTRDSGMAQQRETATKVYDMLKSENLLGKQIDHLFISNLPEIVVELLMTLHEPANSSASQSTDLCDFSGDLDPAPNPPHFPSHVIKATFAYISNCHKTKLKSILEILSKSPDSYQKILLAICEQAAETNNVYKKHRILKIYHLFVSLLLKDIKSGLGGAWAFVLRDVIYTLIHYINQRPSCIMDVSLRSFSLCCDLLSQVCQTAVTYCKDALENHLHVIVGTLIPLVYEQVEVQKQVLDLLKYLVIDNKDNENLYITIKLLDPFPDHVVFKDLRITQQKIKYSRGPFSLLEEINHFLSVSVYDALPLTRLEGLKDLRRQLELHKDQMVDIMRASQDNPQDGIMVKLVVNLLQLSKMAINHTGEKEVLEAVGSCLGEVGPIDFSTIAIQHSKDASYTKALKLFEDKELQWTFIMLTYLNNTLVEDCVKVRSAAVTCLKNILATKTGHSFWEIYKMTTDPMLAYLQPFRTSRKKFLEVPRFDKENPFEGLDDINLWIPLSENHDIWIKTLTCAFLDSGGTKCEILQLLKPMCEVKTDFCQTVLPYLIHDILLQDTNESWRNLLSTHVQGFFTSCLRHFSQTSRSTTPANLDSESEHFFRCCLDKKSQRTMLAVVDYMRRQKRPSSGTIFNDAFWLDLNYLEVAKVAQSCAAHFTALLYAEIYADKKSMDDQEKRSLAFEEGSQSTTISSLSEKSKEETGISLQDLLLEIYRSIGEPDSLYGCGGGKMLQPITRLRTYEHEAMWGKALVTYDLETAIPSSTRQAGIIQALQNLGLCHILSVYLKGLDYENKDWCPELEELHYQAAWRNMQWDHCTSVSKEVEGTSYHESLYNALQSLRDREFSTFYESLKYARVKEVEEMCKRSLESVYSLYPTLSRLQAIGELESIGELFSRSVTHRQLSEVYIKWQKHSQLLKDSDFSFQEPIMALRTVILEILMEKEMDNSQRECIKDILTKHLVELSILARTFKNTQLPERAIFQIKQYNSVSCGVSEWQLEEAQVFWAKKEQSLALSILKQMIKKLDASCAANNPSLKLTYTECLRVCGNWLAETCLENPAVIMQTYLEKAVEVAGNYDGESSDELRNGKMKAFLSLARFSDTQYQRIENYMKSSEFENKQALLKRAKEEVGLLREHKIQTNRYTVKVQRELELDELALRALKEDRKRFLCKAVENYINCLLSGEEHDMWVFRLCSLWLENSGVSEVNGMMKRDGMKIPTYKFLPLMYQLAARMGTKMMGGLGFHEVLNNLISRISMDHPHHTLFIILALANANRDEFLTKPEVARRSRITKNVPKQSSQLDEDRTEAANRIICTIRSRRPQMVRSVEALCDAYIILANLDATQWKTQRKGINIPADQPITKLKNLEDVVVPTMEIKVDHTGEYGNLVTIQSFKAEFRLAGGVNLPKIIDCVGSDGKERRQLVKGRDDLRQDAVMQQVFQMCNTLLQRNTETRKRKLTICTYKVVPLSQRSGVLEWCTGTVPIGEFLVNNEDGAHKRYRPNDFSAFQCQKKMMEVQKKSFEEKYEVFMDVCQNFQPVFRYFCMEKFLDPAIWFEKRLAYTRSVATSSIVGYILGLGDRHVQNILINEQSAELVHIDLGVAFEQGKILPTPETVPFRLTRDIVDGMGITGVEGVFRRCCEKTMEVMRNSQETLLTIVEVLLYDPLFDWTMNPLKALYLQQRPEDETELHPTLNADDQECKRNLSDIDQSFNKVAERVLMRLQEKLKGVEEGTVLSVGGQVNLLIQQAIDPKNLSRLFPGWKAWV

[10] = molecular target: Serine/threonine-protein kinase PLK3 (Homo sapiens) (UniProt Q9H4B4); assay: Inhibition of recombinant human Plk3 (19 to 301 residues) at 1 uM using casein as substrate after 40 mins in presence of [gamma-33P]ATP by scintillation counting method

CS(=O)(=O)c1ccc(-n2nc(-c3cnc4[nH]ccc4c3)c3c(N)ncnc32)cc1 was tested. Which inhibition [1] did it give?
Its inhibition is 17%.

What about the inhibition [2] of the same molecule?
The inhibition was -2%.

And the inhibition [3]?
Its inhibition is 16%.

What about the inhibition [4] of the same molecule?
Its inhibition is 102%.

And the inhibition [5]?
The inhibition was 7%.

What about the inhibition [6] of the same molecule?
Its inhibition is 3%.

What about the inhibition [7] of the same molecule?
Its inhibition is 47%.

And the inhibition [8]?
The inhibition was -3%.

What about the inhibition [9] of the same molecule?
The inhibition was 28%.

And the inhibition [10]?
The inhibition was 3%.
